Source: the NIST ThermoML archive (doi:10.1021/je060097q)
Numbers after ± are expanded uncertainties.

Settings: Capillary rise

COC(C)(C)C [2-methoxy-2-methylpropane]
Settings	surface tension liquid-gas [mN/m]
243.08 K	24.08 ± 0.41
248.01 K	23.43 ± 0.41
253.11 K	22.84 ± 0.41
258.13 K	22.32 ± 0.41
263.1 K	21.65 ± 0.41
268.13 K	20.97 ± 0.4
273.16 K	20.52 ± 0.4
278.11 K	19.99 ± 0.4
283.12 K	19.35 ± 0.4
288.13 K	18.96 ± 0.4
293.07 K	18.53 ± 0.4
298.08 K	17.75 ± 0.4
303.11 K	17.23 ± 0.4
308.15 K	16.71 ± 0.4
313.16 K	16.25 ± 0.4
318.11 K	15.61 ± 0.4
323.16 K	15.09 ± 0.4
328.14 K	14.52 ± 0.4
333.15 K	14.02 ± 0.4
338.16 K	13.56 ± 0.4
343.13 K	13.06 ± 0.4
348.13 K	12.5 ± 0.4
353.13 K	11.94 ± 0.4
358.15 K	11.55 ± 0.4
363.13 K	10.92 ± 0.4
368.13 K	10.53 ± 0.4
373.12 K	9.946 ± 0.4
378.12 K	9.534 ± 0.4
383.12 K	8.956 ± 0.4
388.14 K	8.518 ± 0.4
393.13 K	8.006 ± 0.4

COCOC [dimethoxymethane]
Settings	surface tension liquid-gas [mN/m]
238.07 K	28.12 ± 0.4
243.12 K	27.42 ± 0.4
248.13 K	26.76 ± 0.4
253.12 K	26.21 ± 0.4
258.12 K	25.63 ± 0.4
263.08 K	24.83 ± 0.4
268.09 K	24.23 ± 0.4
273.09 K	23.63 ± 0.4
278.08 K	23.11 ± 0.4
283.07 K	22.39 ± 0.4
288.08 K	21.75 ± 0.4
293.05 K	21.02 ± 0.4
298.04 K	20.36 ± 0.4
303.16 K	19.7 ± 0.4
308.15 K	18.99 ± 0.4
313.16 K	18.4 ± 0.4
318.16 K	17.67 ± 0.4
323.15 K	17.16 ± 0.4
328.13 K	16.56 ± 0.4
333.16 K	15.88 ± 0.4
338.16 K	15.32 ± 0.4
343.15 K	14.65 ± 0.4
348.14 K	14.02 ± 0.4
353.15 K	13.34 ± 0.4
358.15 K	12.83 ± 0.4
363.15 K	12.27 ± 0.4
368.15 K	11.58 ± 0.4
373.15 K	11.01 ± 0.4
378.15 K	10.36 ± 0.4
383.13 K	9.778 ± 0.4
388.14 K	9.175 ± 0.4
